This note sets out measurements from ChEMBL document CHEMBL1201862, “PubChem BioAssay data set” (2004).

Some test systems named below: BT-549; CAKI-1; HCC 2998; HCT-116; HCT-15; HOP-92; NCI-H226; NCI-H522; NCI/ADR-RES; OVCAR-4; OVCAR-5; OVCAR-8; SF-539; SN12C; SNB-19; U-251; UACC-257; UACC-62; UO-31.
Holding throughout (test): NCI anticancer screen, dose series, 48 h

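Growth conditions: 96-well plates. Treatment: test compound, 48 hours, 5 concentrations. Analysis: linear interpolation between bracketing concentrations; unreached endpoints set to highest concentration. Here, GI50 denotes the concentration required for 50% inhibition of growth.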 Activity calls are given as the source filed them. Cut-off read from the data, not from the text of the source: active = GI50 up to about 1.1 µM and inactive = higher.

Consider `CC[C@](O)(CC(=O)O[C@H]1C(=O)O[C@@H]2C[C@H]3C(C)=CC(=O)[C@@H](O)[C@]3(C)[C@H]3[C@@]4(O)OC[C@]32[C@@H]1[C@@H](C)[C@H]4O)C(C)C`, for which the GI50 in the assay on BT-549 was < 0.01 µM (active); in the assay with CAKI-1, < 0.01 µM (active); in the assay on HCC 2998, < 0.01 µM (active); in the assay with HCT-116, < 0.01 µM (active); in the assay on HCT-15, below 0.01 µM; in the assay with HOP-92, < 0.01 µM (active). Moreover, the GI50 in the assay on NCI-H226 was < 0.01 µM (active); with NCI-H522, < 0.01 µM (active); in the assay with NCI/ADR-RES, < 0.0188 µM (active); in the assay with OVCAR-4 it was < 0.01 µM (active); with OVCAR-5, < 0.01 µM (active); in the assay with OVCAR-8, < 0.01 µM (active). The GI50 in the assay on SF-539, with SN12C, in the assay on SNB-19, with U-251, in the assay with UACC-257 and in the assay on UACC-62 was < 0.01 µM (active) throughout. For the same compound, the GI50 in the assay on UO-31 is < 0.0122 µM (active).
In the case of `Cc1ccsc1/C(S)=N\c1ccc(Cl)c(/C=N/OC(C)(C)C)c1`, the GI50 with BT-549 was 22.9 µM (inactive); in the assay on CAKI-1, 29 µM (inactive); in the assay on HCC 2998, 18.5 µM (inactive); in the assay with HCT-116, 16.4 µM (inactive); with HCT-15 it was 31.2 µM; with HOP-92, 18 µM (inactive). For the same compound, the GI50 in the assay with NCI-H226 was 24.7 µM (inactive); in the assay with NCI-H522 it was 24 µM (inactive); in the assay on NCI/ADR-RES, 23.6 µM (inactive); in the assay with OVCAR-4 it was > 100 µM (inactive); with OVCAR-5, > 100 µM (inactive); with OVCAR-8, 33 µM (inactive). In addition, the GI50 was 50.5 µM (inactive) in the assay with SF-539; 27 µM (inactive) with SN12C; > 100 µM (inactive) with SNB-19; 24.3 µM (inactive) in the assay on U-251; 17.2 µM (inactive) with UACC-257; 32.4 µM (inactive) with UACC-62. The GI50 in the assay on UO-31 is 20.6 µM (inactive).
For `CC(=N\N)/C(C)=N/N=C(C)/C(C)=N/N=C(C)/C(C)=N/N`, the GI50 is > 100 µM (inactive) in the assay on BT-549; > 100 µM (inactive) in the assay on CAKI-1; > 100 µM (inactive) with HCC 2998; > 100 µM (inactive) in the assay on HCT-116; above 100 µM in the assay with HCT-15; > 100 µM (inactive) with HOP-92. For the same compound, the GI50 in the assay with NCI-H226, in the assay with NCI-H522, in the assay with NCI/ADR-RES, with OVCAR-4, with OVCAR-5 and in the assay on OVCAR-8 was > 100 µM (inactive) throughout. For the same compound, the GI50 in the assay with SF-539, in the assay with SN12C, with SNB-19, in the assay with U-251, in the assay with UACC-257 and with UO-31 was > 100 µM (inactive) in each case.
Turning to `CCN(CC)c1ccc(/C=C2\CCc3ccc([N+](=O)[O-])cc3C2=O)cc1`, the GI50 is > 100 µM (inactive) with BT-549; > 26.6 µM (inactive) in the assay on CAKI-1; 10.1 µM (inactive) in the assay on HCC 2998; 0.199 µM (active) in the assay with HCT-116; 0.64 µM in the assay on HCT-15; > 100 µM (inactive) with HOP-92. Also, the GI50 was > 100 µM (inactive) with NCI-H226; 0.912 µM (active) in the assay on NCI-H522; 1.03 µM (active) with NCI/ADR-RES; > 100 µM (inactive) in the assay on OVCAR-4; > 100 µM (inactive) in the assay on OVCAR-5; 3.73 µM (inactive) in the assay on OVCAR-8. In addition, the GI50 in the assay with SF-539 was 2.25 µM (inactive); in the assay with SN12C it was 2.99 µM (inactive); in the assay on SNB-19, 1.42 µM (inactive); in the assay on U-251, 1.7 µM (inactive); in the assay on UACC-62, 1.29 µM (inactive); with UO-31 it was 7.46 µM (inactive).
